These results are taken from ChEMBL document CHEMBL5465560, “Selectivity Literature for EUbOPEN Chemogenomic Library” (2024).

Test [1] has as its target T1, Serine/threonine-protein kinase tousled-like 1 (Homo sapiens) (UniProt Q9UKI8).
T1 sequence (whole entry): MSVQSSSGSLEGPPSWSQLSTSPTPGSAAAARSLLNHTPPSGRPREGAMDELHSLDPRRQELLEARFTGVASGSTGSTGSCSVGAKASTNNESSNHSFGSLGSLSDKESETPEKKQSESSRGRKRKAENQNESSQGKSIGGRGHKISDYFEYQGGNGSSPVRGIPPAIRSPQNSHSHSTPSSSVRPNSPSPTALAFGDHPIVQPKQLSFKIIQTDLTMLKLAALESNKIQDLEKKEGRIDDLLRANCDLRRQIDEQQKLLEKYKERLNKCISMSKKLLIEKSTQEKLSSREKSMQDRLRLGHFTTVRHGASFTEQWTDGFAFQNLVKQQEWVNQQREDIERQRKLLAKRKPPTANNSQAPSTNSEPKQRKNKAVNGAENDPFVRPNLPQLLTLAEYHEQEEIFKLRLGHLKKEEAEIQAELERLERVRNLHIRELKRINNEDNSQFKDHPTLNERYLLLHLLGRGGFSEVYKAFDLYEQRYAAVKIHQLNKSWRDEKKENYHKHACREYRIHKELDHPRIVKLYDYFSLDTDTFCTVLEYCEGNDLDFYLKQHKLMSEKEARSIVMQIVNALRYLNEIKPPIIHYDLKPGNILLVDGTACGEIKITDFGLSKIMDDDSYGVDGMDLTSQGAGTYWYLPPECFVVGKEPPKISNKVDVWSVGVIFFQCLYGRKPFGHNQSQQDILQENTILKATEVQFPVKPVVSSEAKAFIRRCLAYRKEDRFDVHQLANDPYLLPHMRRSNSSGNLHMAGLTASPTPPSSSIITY
As to conditions: at 10 µM.

In test [2] the target is Dual specificity tyrosine-phosphorylation-regulated kinase 1B (Homo sapiens, UniProt Q9Y463). In words: Selectivity interaction (KinomeScan (DiscoverX)) EUB0000092b DYRK1B. The note with it: at 10 µM.
Chain of Dual specificity tyrosine-phosphorylation-regulated kinase 1B (Q9Y463 whole entry, looked up): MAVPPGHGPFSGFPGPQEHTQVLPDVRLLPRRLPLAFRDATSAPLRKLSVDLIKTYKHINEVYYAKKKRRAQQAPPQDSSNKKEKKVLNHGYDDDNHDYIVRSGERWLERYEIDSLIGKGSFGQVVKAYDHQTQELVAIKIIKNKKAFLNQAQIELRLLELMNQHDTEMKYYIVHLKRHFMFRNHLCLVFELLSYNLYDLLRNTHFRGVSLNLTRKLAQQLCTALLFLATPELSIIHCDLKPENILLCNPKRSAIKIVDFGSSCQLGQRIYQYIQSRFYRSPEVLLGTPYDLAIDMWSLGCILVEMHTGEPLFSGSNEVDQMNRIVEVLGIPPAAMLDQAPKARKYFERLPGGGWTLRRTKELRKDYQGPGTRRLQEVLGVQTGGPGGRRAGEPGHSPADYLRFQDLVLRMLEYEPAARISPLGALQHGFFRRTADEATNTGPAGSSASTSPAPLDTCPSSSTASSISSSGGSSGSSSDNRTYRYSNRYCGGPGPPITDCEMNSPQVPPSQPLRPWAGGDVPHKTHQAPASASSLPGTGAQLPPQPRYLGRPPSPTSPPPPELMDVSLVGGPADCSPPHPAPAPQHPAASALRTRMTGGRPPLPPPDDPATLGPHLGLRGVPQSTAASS
Test [3] has as its target T2, Scaffold protein ILK (Homo sapiens) (UniProt Q13418).
T2 sequence (whole entry): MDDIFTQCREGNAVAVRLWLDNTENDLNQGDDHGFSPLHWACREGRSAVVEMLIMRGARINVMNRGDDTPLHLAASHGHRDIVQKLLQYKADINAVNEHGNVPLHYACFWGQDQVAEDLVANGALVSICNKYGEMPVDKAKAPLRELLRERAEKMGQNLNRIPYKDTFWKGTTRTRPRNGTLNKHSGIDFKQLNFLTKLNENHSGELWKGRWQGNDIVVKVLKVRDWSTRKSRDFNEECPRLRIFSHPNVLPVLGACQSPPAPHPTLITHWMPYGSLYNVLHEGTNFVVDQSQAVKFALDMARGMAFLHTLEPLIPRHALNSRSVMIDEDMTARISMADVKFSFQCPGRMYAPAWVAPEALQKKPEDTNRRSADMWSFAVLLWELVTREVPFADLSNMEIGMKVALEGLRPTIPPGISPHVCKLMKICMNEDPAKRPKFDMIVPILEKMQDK
In words: Selectivity interaction (ActivX KiNativ screen (kinase selectivity in THP-1 cell lysates)) EUB0000639a ILK. It counts as subcellular. As to conditions: lysate, at 0.2 µM.

Test [4] concerns the target T3, Myosin-IIIb (Homo sapiens) (UniProt Q8WXR4).
T3 sequence (whole entry): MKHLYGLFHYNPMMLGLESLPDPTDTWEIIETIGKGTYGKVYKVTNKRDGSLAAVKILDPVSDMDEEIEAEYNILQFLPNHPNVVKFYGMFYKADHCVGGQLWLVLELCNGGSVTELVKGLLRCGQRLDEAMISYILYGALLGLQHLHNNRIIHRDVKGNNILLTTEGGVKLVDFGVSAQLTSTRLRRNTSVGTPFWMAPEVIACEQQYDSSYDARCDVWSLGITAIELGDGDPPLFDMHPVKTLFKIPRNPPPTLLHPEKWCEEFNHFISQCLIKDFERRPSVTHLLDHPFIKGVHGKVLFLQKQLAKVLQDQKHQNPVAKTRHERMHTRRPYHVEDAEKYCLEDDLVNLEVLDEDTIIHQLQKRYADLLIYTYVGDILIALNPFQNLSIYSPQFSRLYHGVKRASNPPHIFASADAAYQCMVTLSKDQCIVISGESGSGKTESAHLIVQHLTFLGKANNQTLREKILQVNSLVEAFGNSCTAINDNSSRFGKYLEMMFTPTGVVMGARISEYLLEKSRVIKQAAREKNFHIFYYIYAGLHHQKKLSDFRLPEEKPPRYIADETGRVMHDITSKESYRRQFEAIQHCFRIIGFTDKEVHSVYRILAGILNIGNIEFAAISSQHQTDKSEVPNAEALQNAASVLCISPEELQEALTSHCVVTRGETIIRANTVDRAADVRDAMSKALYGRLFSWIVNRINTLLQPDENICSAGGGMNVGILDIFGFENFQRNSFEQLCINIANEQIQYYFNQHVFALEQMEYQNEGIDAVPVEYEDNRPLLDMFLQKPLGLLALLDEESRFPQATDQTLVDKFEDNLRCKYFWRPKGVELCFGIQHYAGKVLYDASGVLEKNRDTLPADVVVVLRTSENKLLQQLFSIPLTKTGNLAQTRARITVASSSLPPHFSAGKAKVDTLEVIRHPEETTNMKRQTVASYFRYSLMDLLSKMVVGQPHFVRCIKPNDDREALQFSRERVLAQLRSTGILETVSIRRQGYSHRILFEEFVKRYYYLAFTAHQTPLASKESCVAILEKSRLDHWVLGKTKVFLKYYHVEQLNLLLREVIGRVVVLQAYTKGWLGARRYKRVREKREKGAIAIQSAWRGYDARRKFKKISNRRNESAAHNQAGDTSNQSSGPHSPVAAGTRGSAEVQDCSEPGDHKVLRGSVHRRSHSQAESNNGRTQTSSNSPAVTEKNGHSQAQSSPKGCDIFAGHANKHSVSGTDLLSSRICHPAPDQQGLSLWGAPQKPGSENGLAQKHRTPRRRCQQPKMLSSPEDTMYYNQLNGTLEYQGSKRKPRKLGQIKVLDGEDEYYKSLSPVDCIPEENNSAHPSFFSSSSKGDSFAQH
In words: Selectivity interaction (KinomeScan (DiscoverX)) EUB0000595a MYO3B. As to conditions: at 10 µM.

Test [5] concerns the target Serine/threonine-protein kinase 32A (Homo sapiens) (UniProt Q8WU08). The test is described as follows: Selectivity interaction (KinomeScan (DiscoverX)) EUB0000595a STK32A. As to conditions: at 10 µM.

Chain of Serine/threonine-protein kinase 32A (Homo sapiens) (Q8WU08 whole entry): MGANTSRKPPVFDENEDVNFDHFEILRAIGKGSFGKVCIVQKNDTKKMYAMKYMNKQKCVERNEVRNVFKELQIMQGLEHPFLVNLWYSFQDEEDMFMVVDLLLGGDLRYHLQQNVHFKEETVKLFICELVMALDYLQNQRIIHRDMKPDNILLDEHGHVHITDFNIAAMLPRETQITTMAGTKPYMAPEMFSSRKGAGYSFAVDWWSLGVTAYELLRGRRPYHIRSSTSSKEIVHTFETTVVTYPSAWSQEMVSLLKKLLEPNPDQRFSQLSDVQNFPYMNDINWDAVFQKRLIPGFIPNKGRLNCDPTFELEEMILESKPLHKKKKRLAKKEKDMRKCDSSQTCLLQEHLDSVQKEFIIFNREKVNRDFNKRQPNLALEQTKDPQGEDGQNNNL

In the case of `Cc1cc([C@@H](C)Nc2ccccc2C(=O)O)c2nc(N3CCOCC3)cc(=O)n2c1` [AZD-6482], in test [1], the % of control came out at 96%.

Compound `CCC(=O)N1CCN(c2ccc(-n3c(=O)ccc4cnc5ccc(-c6cnc7ccccc7c6)cc5c43)cc2C(F)(F)F)CC1` had a % of control in test [2] of 87%.

For `CC[C@@H]1[C@H](F)C(=O)N[C@@H]1COc1nccc2cc(C(N)=O)c(OC)cc12` [ZIMLOVISERTIB], in test [3], the % of inhibition is -10.7%.

As to `COCC(=O)NC/C=C/c1ccc2ncnc(Nc3ccc(Oc4ccc(C)nc4)c(C)c3)c2c1` [CP-724714], the % of control in test [4] and in test [5] was 100% each time.
